Laboratory results published in the NIST ThermoML archive (doi:10.1016/j.jct.2014.07.012).

Test: mn = molality of the nth substance listed, in mol/kg
Settings: 100 kPa, Liquid; for speed of sound: Frequency=3 MHz, Sing-around technique in a fixed-path interferometer; for mass density: Vibrating tube method

CCN(CC)C(N)=O [1,1-diethylurea] + O
Settings | mass density, 288.15 K [kg/m3] | mass density, 293.15 K [kg/m3] | mass density, 298.15 K [kg/m3] | mass density, 303.15 K [kg/m3] | mass density, 308.15 K [kg/m3] | speed of sound, 288.15 K [m/s] | speed of sound, 293.15 K [m/s] | speed of sound, 298.15 K [m/s] | speed of sound, 303.15 K [m/s] | speed of sound, 308.15 K [m/s]
m1 = 0.0535 | 999.376 | 998.462 | 997.288 | 995.875 | 994.243 | – | – | – | – | –
m1 = 0.0856 | 999.546 | 998.62 | 997.435 | 996.012 | 994.369 | 1474.9 | 1490.4 | 1503.9 | 1515.7 | 1525.8
m1 = 0.1181 | 999.725 | 998.786 | 997.589 | 996.154 | 994.501 | 1478 | 1493.2 | 1506.6 | 1518.1 | 1528
m1 = 0.1603 | 999.959 | 999.002 | 997.788 | 996.338 | 994.672 | 1482 | 1496.8 | 1509.9 | 1521.2 | 1530.8
m1 = 0.2142 | 1000.27 | 999.288 | 998.052 | 996.585 | 994.898 | 1487 | 1501.4 | 1514.1 | 1525 | 1534.3
m1 = 0.2689 | 1000.59 | 999.586 | 998.328 | 996.837 | 995.135 | 1491.9 | 1506 | 1518.2 | 1528.8 | 1537.8
m1 = 0.3254 | 1000.93 | 999.905 | 998.628 | 997.108 | 995.381 | 1496.9 | 1510.3 | 1522.2 | 1532.6 | 1541.3

CN(C)C(N)=O [N,N-dimethylurea] + O
Settings | mass density, 288.15 K [kg/m3] | mass density, 293.15 K [kg/m3] | mass density, 298.15 K [kg/m3] | mass density, 303.15 K [kg/m3] | mass density, 308.15 K [kg/m3] | speed of sound, 288.15 K [m/s] | speed of sound, 293.15 K [m/s] | speed of sound, 298.15 K [m/s] | speed of sound, 303.15 K [m/s] | speed of sound, 308.15 K [m/s]
m1 = 0.0526 | 999.644 | 998.733 | 997.562 | 996.154 | 994.527 | 1469.9 | 1485.7 | 1499.7 | 1511.8 | 1522.3
m1 = 0.0842 | 999.97 | 999.051 | 997.869 | 996.454 | 994.818 | 1471.8 | 1487.5 | 1501.3 | 1513.4 | 1523.7
m1 = 0.1149 | 1000.29 | 999.36 | 998.171 | 996.746 | 995.103 | 1473.7 | 1489.2 | 1502.9 | 1514.8 | 1525
m1 = 0.1572 | 1000.73 | 999.785 | 998.583 | 997.148 | 995.495 | 1476.3 | 1491.6 | 1505.1 | 1516.8 | 1526.8
m1 = 0.2104 | 1001.28 | 1000.32 | 999.103 | 997.653 | 995.988 | 1479.6 | 1494.6 | 1507.8 | 1519.3 | 1529.1
m1 = 0.2629 | 1001.83 | 1000.85 | 999.617 | 998.153 | 996.474 | 1482.6 | 1497.4 | 1510.4 | 1521.7 | 1531.3
m1 = 0.318 | 1002.4 | 1001.4 | 1000.15 | 998.673 | 996.98 | 1485.9 | 1500.4 | 1513.2 | 1524.2 | 1533.6

CCCCNC(N)=O [N-butylurea] + O
Settings | mass density, 288.15 K [kg/m3] | mass density, 293.15 K [kg/m3] | mass density, 298.15 K [kg/m3] | mass density, 303.15 K [kg/m3] | mass density, 308.15 K [kg/m3] | speed of sound, 288.15 K [m/s] | speed of sound, 293.15 K [m/s] | speed of sound, 298.15 K [m/s] | speed of sound, 303.15 K [m/s] | speed of sound, 308.15 K [m/s]
m1 = 0.0486 | 999.444 | 998.527 | 997.349 | 995.933 | 994.297 | 1471.6 | 1487.2 | 1501.1 | 1513.1 | 1523.5
m1 = 0.0781 | 999.638 | 998.707 | 997.514 | 996.086 | 994.438 | 1474.5 | 1490 | 1503.6 | 1515.4 | 1525.6
m1 = 0.1078 | 999.835 | 998.889 | 997.683 | 996.243 | 994.583 | 1477.5 | 1492.7 | 1506.1 | 1517.7 | 1527.6
m1 = 0.1473 | 1000.1 | 999.134 | 997.909 | 996.448 | 994.774 | 1481.3 | 1496.2 | 1509.3 | 1520.6 | 1530.3
m1 = 0.1974 | 1000.44 | 999.45 | 998.201 | 996.718 | 995.022 | 1486.1 | 1500.6 | 1513.3 | 1524.3 | 1533.7
m1 = 0.2475 | 1000.78 | 999.763 | 998.489 | 996.985 | 995.266 | 1490.8 | 1504.9 | 1517.3 | 1527.9 | 1536.9
m1 = 0.2986 | 1001.14 | 1000.09 | 998.789 | 997.259 | 995.516 | 1495.5 | 1509.2 | 1521.2 | 1531.5 | 1540.2

CCCNC(N)=O [N-propylurea] + O
Settings | mass density, 288.15 K [kg/m3] | mass density, 293.15 K [kg/m3] | mass density, 298.15 K [kg/m3] | mass density, 303.15 K [kg/m3] | mass density, 308.15 K [kg/m3] | speed of sound, 288.15 K [m/s] | speed of sound, 293.15 K [m/s] | speed of sound, 298.15 K [m/s] | speed of sound, 303.15 K [m/s] | speed of sound, 308.15 K [m/s]
m1 = 0.0494 | 999.566 | 998.653 | 997.48 | 996.069 | 994.44 | – | – | – | – | –
m1 = 0.079 | 999.848 | 998.924 | 997.74 | 996.318 | 994.678 | – | – | – | – | –
m1 = 0.0791 | – | – | – | – | – | 1473.3 | 1488.9 | 1502.6 | 1514.5 | 1524.8
m1 = 0.1089 | 1000.13 | 999.198 | 998.003 | 996.573 | 994.925 | 1475.8 | 1491.1 | 1504.7 | 1516.4 | 1526.5
m1 = 0.1484 | 1000.52 | 999.564 | 998.356 | 996.91 | 995.249 | 1479 | 1494.1 | 1507.4 | 1518.9 | 1528.8
m1 = 0.1983 | 1000.99 | 1000.02 | 998.792 | 997.329 | 995.652 | 1483 | 1497.8 | 1510.8 | 1522 | 1531.7
m1 = 0.249 | 1001.49 | 1000.49 | 999.244 | 997.763 | 996.069 | 1487.1 | 1501.6 | 1514.2 | 1525.2 | 1534.6
m1 = 0.3012 | 1001.99 | 1000.97 | 999.704 | 998.202 | 996.489 | 1491.1 | 1505.3 | 1517.7 | 1528.4 | 1537.5

NC(N)=O [urea] + O
Settings | mass density, 288.15 K [kg/m3] | mass density, 293.15 K [kg/m3] | mass density, 298.15 K [kg/m3] | mass density, 303.15 K [kg/m3] | mass density, 308.15 K [kg/m3] | speed of sound, 288.15 K [m/s] | speed of sound, 293.15 K [m/s] | speed of sound, 298.15 K [m/s] | speed of sound, 303.15 K [m/s] | speed of sound, 308.15 K [m/s]
m1 = 0.0504 | 999.922 | 999.019 | 997.847 | 996.442 | 994.816 | 1468.2 | 1483.9 | 1498 | 1510.3 | 1520.9
m1 = 0.0807 | 1000.43 | 999.511 | 998.329 | 996.911 | 995.281 | 1469.1 | 1484.8 | 1498.8 | 1511 | 1521.6
m1 = 0.1107 | 1000.92 | 999.994 | 998.802 | 997.378 | 995.738 | 1470 | 1485.6 | 1499.6 | 1511.8 | 1522.2
m1 = 0.151 | 1001.58 | 1000.64 | 999.436 | 997.998 | 996.351 | 1471.3 | 1486.8 | 1500.6 | 1512.7 | 1523.1
m1 = 0.2005 | 1002.39 | 1001.43 | 1000.21 | 998.757 | 997.097 | 1472.8 | 1488.1 | 1501.9 | 1513.9 | 1524.2
m1 = 0.2512 | 1003.21 | 1002.23 | 1000.99 | 999.529 | 997.855 | 1474.1 | 1489.5 | 1503.1 | 1515 | 1525.3

O [water] + CCCCNC(N)=O
Settings | mass density [kg/m3]
308.15 K, m2 = 0 | 994.065
